Reference: PMC10552397 (Cell Communication and Signaling : CCS, 2023)

Legend:
SDC4 = molecular target: T1, SDC4 (Homo sapiens, UniProt P31431); assay: TPP-TR/RTSA, SDC4; assay type: binding
T1 construct: endogenous in cells; host or cells: HeLa wt cells
T1 sequence (P31431 19-198): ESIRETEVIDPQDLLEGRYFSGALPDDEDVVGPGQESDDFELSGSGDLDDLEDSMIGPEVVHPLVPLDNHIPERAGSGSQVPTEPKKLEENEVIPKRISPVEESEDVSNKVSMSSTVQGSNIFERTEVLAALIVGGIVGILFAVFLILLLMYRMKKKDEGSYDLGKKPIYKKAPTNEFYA
Procedure: TPP was performed essentially as described, but with major modifications to the TMT labeling sets and statistical data analysis for TPP-TR.
Adherent cells were washed in the dish once with DPBS and harvested by Trypsin–EDTA (0.25%, Thermo Fisher Scientific, Waltham, MA, USA, #25,200,056) treatment. […]
After temperature treatment, samples were supplemented with lysis buffer (final concentrations: 0.36 U/µL benzonase, 1.5 mM MgCl2, 1 mM Na3VO4, 10 mM NaF, 2.5 mM Na4P2O7, 0.8% w/v NP-40) for 1 h on ice. […] The total protein concentration of the resulting cell extracts containing the fraction of soluble, non-denatured proteins was determined (Pierce 660 nm Protein Assay, BSA as standard). […] The two (37 °C or 50 °C) x ten (concentrations) x three (replicates) = 60 TPP-CCR samples and two (treatment and control) x ten (temperatures) x three (replicates) = 60 TPP-TR samples were analyzed by LC–MS/MS. GRASP55 was additionally quantified from the TPP-TR samples by immunoblotting as described in the respective section.
For TPP-CCR, SP3 was performed as described with slight modifications to the original protocol using on average 5 µg total protein per sample and resulting in theoretically 5 µg peptides in 22 µL 50 mM triethylammonium bicarbonate per sample. […] This volume was calculated such that the lowest two temperature samples (36.5 °C and 41.2 °C) contained 10 µg total protein on average. […]

HeLa wt cells = assay: Immunofluorescence of LC3 and LAMP1; assay type: cell-based; details: 2 h; prodigiosin 100 nM, BafA1 10 nM
Procedure: For immunofluorescence microscopy, HeLa cells were seeded on glass coverslips in 24-well plates. After treatment, cells were fixed in 4% paraformaldehyde for 15 min on ice, quenched with 50 mM NH4Cl for 15 min and permeabilized with 50 µg/mL digitonin (Sigma-Aldrich, St. Louis, MO, USA, #D141) for 5 min. Fixed samples were blocked with 3% BSA (Roth, Karlsruhe, Germany, #8076) for 30 min or overnight and incubated with primary antibodies diluted in 3% BSA for 2 h. Samples were then washed three times with DPBS, incubated with the appropriate secondary antibodies diluted in 3% BSA for 30 min and washed three times with DPBS. Afterwards, cells were embedded in ProLong Glass Antifade Mountant (Thermo Fisher Scientific, Waltham, MA, USA, #P36980) containing 1 µg/mL DAPI (Roth, Karlsruhe, Germany, #6335.1). Images were recorded with an Axio Observer 7 fluorescence microscope (Carl Zeiss Microscopy, Oberkochen, Germany) using a 40x/1,4 Oil DIC M27 Plan-Apochromat objective (Carl Zeiss Microscopy, Oberkochen, Germany) and an ApoTome 2 (Carl Zeiss Microscopy, Oberkochen, Germany).

## CCCCCC1=C/C(=C/c2[nH]c(-c3ccc[nH]3)cc2OC)N=C1C [Prodigiosin, prodigiosin]
SDC4; 100 nM vs DMSO, 6 h, HeLa wt, read-out: Mean_dTm
  ΔTm at 0.1 µM: 0.55 °C
SDC4; RTSA distance score
  distancescore: 10.308
HeLa wt cells
  LC3-positive structures: increase
  co-localization of LC3- and LAMP1-positive structures: highly significant increase
